This passage reports IC50 results from patent publication US6214869A, “Heterocyclic cis cyclopropane derivatives as melatonergic agents” (Bristol-Myers Squibb, priority 1999, dated 2001).

Molecules are shown by their SMILES.

This assay deals with T1, ML1a human melatonin receptor (Homo sapiens, UniProt P48039).
T1 construct: expressed in transfected cells
T1 sequence (P48039 whole entry): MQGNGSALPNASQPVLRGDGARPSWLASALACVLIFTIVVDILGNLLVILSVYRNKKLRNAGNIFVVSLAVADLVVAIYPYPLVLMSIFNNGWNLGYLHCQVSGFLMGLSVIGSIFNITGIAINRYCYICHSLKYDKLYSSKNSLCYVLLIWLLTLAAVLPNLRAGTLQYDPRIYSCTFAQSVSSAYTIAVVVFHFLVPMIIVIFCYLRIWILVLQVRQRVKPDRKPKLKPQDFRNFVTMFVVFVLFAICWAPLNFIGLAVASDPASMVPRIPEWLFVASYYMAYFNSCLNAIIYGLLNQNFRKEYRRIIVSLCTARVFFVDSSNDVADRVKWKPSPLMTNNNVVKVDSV
Briefly: Melatonergic receptor binding (2-[125I]-iodomelatonin, membranes of NIH-3T3 cells expressing ML1a receptor). Conditions: 37° C. for 1 hour, read-out: Melatonin Binding Affinity (IC50). As to the method: Melatonergic Receptor Binding Activity
(a) TME=50 mM Tris buffer containing 12.5 mM MgCl2, and 2 mM EDTA, pH 7.4 at 37° C. with concentrated HCl.
(b) Wash buffer: 20 mM Tris base containing 2 mM MgCl2, pH 7.4 at room temperature.
(c) 10^-4 M melatonin (10^-5 M final concentration).
(d) 2-[^125 I]-iodomelatonin, 0.1 M final concentration
The melatonin ML1a receptor cDNA was subcloned into pcDNA3 and introduced into NIH-3T3 cells using Lipofectamine. Transformed NIH-3T3 cells resistant to geneticin (G-418) were isolated, and single colonies expressing high levels of 2[^125 I]-iodomelatonin binding were isolated. Cells are maintained in DMEM supplemented with 10% calf serum and G-418 (0.5 g/liter). Cells are grown to confluency in T-175 flasks, scraped using Hank's balanced salt solution, and frozen at -80° C. For preparing membrane homogenates, pellets are thawed on ice, and resuspended in TME buffer in the presence of 10 μg/ml aprotinin and leupeptin, and 100 μM phenylmethylsulfonylfluoride. The cells were then homogenized using a dounce homogenizer, and centrifuged. The resulting pellet was resuspended with dounce homogenizer in TME (supplemented with the above protease inhibitors) and frozen. On the day of assay, the small aliquot was thawed on ice and resuspended in ice cold TME (1:50-1:100 v/v) and held on ice until assayed.
3. Incubation: 37° C. for 1 hour. Reaction is terminated by filtration. Filters are washed 3 times.
^a = (IC50) values for ML1a human melatonin receptor binding
The term IC50 denotes the point on the concentration scale where inhibition reaches its midpoint. As to `CCCC(=O)NC[C@@H]1C[C@@H]1c1cccc2c1CCO2` (relative stereo) [Example 4, (cis)-N-[[2-(2,3-Dihydrobenzofuran-4-yl)cycloprop-1-yl]methyl]butyramide], the half-inhibitory concentration (IC50) was less than 50 nM.
Next, `O=C(NC[C@@H]1C[C@@H]1c1cccc2c1CCO2)C1CC1` (relative stereo) [Example 3, (cis)-N-[[2-(2,3-Dihydrobenzofuran-4-yl)cycloprop-1-yl]methyl]cyclopropane carboxamide]: less than 50 nM.
Consider `CCC(=O)NC[C@@H]1C[C@@H]1c1cccc2c1CCO2` (relative stereo) [Example 1, (cis)-N-[[2-(2,3-Dihydrobenzofuran-4-yl)cycloprop-1-yl]methyl]propanamide], for which the IC50 is less than 50 nM.
In the case of `CC(C)C(=O)NC[C@H]1C[C@H]1c1cccc2c1CCO2` (relative stereo) [Example 5, (cis)-N-[[2-(2,3-Dihydrobenzofuran-4-yl)cycloprop-1-yl]methyl]-2-methyl propanamide], the IC50 was less than 50 nM.
Next, `CC(=O)NC[C@@H]1C[C@@H]1c1cccc2c1CCO2` (relative stereo) [Example 2, (cis)-N-[[2-(2,3-Dihydrobenzofuran-4-yl)cycloprop-1-yl]methyl]acetamide]: 50 to 200 nM.
